Results from patent US8916702B2 (priority 2012, dated 2014).
pEC50: −log10 of the molar value.

System: HCV pseudoparticles (genotype 1a HCV E1 and E2 envelope, H77C isolate)
Assay: microbe, parasite or virus in culture
Assay type: cell-based
Conditions: Hepatitis C virus, Huh-7, 48 h, HCV pseudoparticle infection of Huh7 cells, luciferase 2 days after infection; average of duplicates

Row | Compound | pEC50
1 | COC(=O)[C@H](CNC(=O)C(N)=O)NC(=O)c1ccc(Nc2nc(NC3(c4ccc(Cl)cc4)CC3)nc(OCC(F)(F)F)n2)cc1 [Compound 1002, (S)-methyl 3-(2-amino-2-oxoacetamido)-2-(4-(4-(1-(4-chlorophenyl)cyclopropylamino)-6-(2,2,2-trifluoroethoxy)-1,3,5-triazin-2-ylamino)benzamido)propanoate] | 8.68

Same assay, conditions: Hepatitis C virus, Huh-7, 48 h, HCV pseudoparticles (genotype 1a, H77C) in Huh7 cells; average of duplicate; luciferase 2 days after infection

Row | Compound | pEC50
2 | CC(CNC(=O)C(=O)Nc1cc(F)cc(F)c1)CNC(=O)c1ccc(Nc2nc(NC3(c4ccc(Cl)cc4)CC3)nc(OCC(F)(F)F)n2)cc1 (stereo not drawn) [Compound 3469] | 10.46
3 | Cc1ccc(NC(=O)C(=O)NC(C)(C)CNC(=O)c2ccc(Nc3nc(NC4(c5ccc(Cl)cc5)CC4)nc(OCC(F)(F)F)n3)cc2)cc1 [Compound 3417] | 10.49

Same assay, conditions: Hepatitis C virus, Huh-7, 48 h, HCV pseudoparticles, Huh7 cells, luciferase 2 days after infection; average of duplicates

Row | Compound | pEC50
4 | O=C(NC[C@H](NC(=O)c1ccc(Nc2nc(NC3(c4ccc(Cl)cc4)CC3)nc(OCC(F)(F)F)n2)cc1)C(=O)O)C(=O)Nc1cccc(-c2ccccc2)c1 [Compound 3751] | 9.85

Same assay, conditions: Hepatitis C virus, Huh-7, 48 h, read-out: Activity (EC50 class), HCV pseudoparticle infection of Huh7 cells, luciferase 2 days after infection; EC50 expressed as class A/B

Row | Compound | pEC50
5 | CCC1(CC)CC1CNC(=O)C(=O)NC[C@H](NC(=O)c1ccc(Nc2nc(NC3(c4ccc(Cl)cc4)CC3)nc(OCC(F)(F)F)n2)cc1)C(=O)OC (stereo partly drawn) [Compound 1459] | 8.00 to 11.00
6 | C[C@@H](NC(=O)C(=O)NC[C@H](NC(=O)c1ccc(Nc2nc(NC3(c4ccc(Cl)cc4)CC3)nc(OCC(F)(F)F)n2)cc1)C(=O)O)C1CCCCC1 [Compound 1476] | 8.00 to 11.00
7 | COC(=O)[C@H](CNC(=O)C(=O)N[C@H](C)C1CCCCC1)NC(=O)c1ccc(Nc2nc(NC3(c4ccc(Cl)cc4)CC3)nc(OCC(F)(F)F)n2)cc1 [Compound 1455] | 8.00 to 11.00
8 | O=C(NCC[C@H](NC(=O)c1ccc(Nc2nc(NC3(c4ccc(Cl)cc4)CC3)nc(OCC(F)(F)F)n2)cc1)C(=O)O)C(=O)Nc1ccc(F)cc1F [Compound 1502] | 8.00 to 11.00
9 | CC(C)(CNC(=O)C(=O)NCc1ccc(F)cc1)CNC(=O)c1ccc(Nc2nc(NC3(c4ccc(Cl)cc4)CC3)nc(OCC(F)(F)F)n2)cc1 [Compound 1549] | 8.00 to 11.00
10 | COc1cc(OC)nc(-c2ccc(NC(=O)C(=O)NCC(C)(C)CNC(=O)c3ccc(Nc4nc(NC5(c6ccc(Cl)cc6)CC5)nc(OCC(F)(F)F)n4)cc3)cc2)n1 [Compound 1596] | 8.00 to 11.00
11 | COC(=O)[C@H](CCNC(=O)C(=O)Nc1cc[nH]n1)NC(=O)c1ccc(Nc2nc(NC3(c4ccc(Cl)cc4)CC3)nc(OCC(F)(F)F)n2)cc1 [Compound 1223] | 8.00 to 11.00
12 | CCOCC1(CNC(=O)C(=O)NCC[C@H](NC(=O)c2ccc(Nc3nc(NC4(c5ccc(Cl)cc5)CC4)nc(OCC(F)(F)F)n3)cc2)C(=O)O)CC1 [Compound 1422] | 8.00 to 11.00
13 | CC(C)(Cc1ccc(F)cc1)NC(=O)C(=O)NCC(NC(=O)c1ccc(Nc2nc(NC3(c4ccc(Cl)cc4)CC3)nc(OCC(F)(F)F)n2)cc1)C(=O)O (stereo not drawn) [Compound 1408] | 8.00 to 11.00
14 | COC(=O)[C@H](CNC(=O)C(N)=O)NC(=O)c1ccc(Nc2nc(NC3(c4ccc(Cl)cc4)CC3)nc(OCC(F)(F)F)n2)cc1 [Compound 1002, (S)-methyl 3-(2-amino-2-oxoacetamido)-2-(4-(4-(1-(4-chlorophenyl)cyclopropylamino)-6-(2,2,2-trifluoroethoxy)-1,3,5-triazin-2-ylamino)benzamido)propanoate] | 8.00 to 11.00
15 | CN(C)CCNC(=O)C(=O)NC[C@@H](NC(=O)c1ccc(Nc2nc(NC3(c4ccc(Cl)cc4)CC3)nc(OCC(F)(F)F)n2)cc1)C(=O)O [Compound 1045] | 8.00 to 11.00
16 | CC(C)(C)OC(=O)NC1CCCC(NC(=O)C(=O)NCC[C@H](NC(=O)c2ccc(Nc3nc(NC4(c5ccc(Cl)cc5)CC4)nc(OCC(F)(F)F)n3)cc2)C(=O)O)C1 (stereo partly drawn) [Compound 1111] | 8.00 to 11.00
17 | O=C(NCC[C@H](NC(=O)c1ccc(Nc2nc(NC3(c4ccc(Cl)cc4)CC3)nc(OCC(F)(F)F)n2)cc1)C(=O)O)C(=O)Nc1ccc(F)c(F)c1F [Compound 1509] | 8.00 to 11.00
18 | COC(=O)[C@@H](CCNC(=O)C(=O)NCC1CC1c1cccc(OC)c1)NC(=O)c1ccc(Nc2nc(NC3(c4ccc(Cl)cc4)CC3)nc(OCC(F)(F)F)n2)cc1 (stereo partly drawn) [Compound 1416] | 8.00 to 11.00
19 | CC(C)(C)OC(=O)N1CCC(NC(=O)C(=O)NC[C@H](NC(=O)c2ccc(Nc3nc(NC4(c5ccc(Cl)cc5)CC4)nc(OCC(F)(F)F)n3)cc2)C(=O)O)CC1 [Compound 1079] | 8.00 to 11.00
20 | COC(=O)[C@H](CCNC(=O)C(=O)NC(C)(C)Cc1ccc(F)cc1)NC(=O)c1ccc(Nc2nc(NC3(c4ccc(Cl)cc4)CC3)nc(OCC(F)(F)F)n2)cc1 [Compound 1319] | 8.00 to 11.00
21 | COC(=O)[C@H](CCNC(=O)C(=O)NC(COCc1ccccc1)C1CC1)NC(=O)c1ccc(Nc2nc(NC3(c4ccc(Cl)cc4)CC3)nc(OCC(F)(F)F)n2)cc1 (stereo partly drawn) [Compound 1370] | 8.00 to 11.00
22 | COC(=O)[C@@H](CCNC(=O)C(=O)NC(CCO)C1CC1)NC(=O)c1ccc(Nc2nc(NC3(c4ccc(Cl)cc4)CC3)nc(OCC(F)(F)F)n2)cc1 (stereo partly drawn) [Compound 1390] | 8.00 to 11.00

Same assay, conditions: Hepatitis C virus, Huh-7, 48 h, read-out: Activity (EC50 class), HCV pseudoparticles, Huh7 cells, luciferase 2 days after infection; average of duplicates

Row | Compound | pEC50
23 | COC(=O)[C@H](CNC(=O)C(=O)Nc1cccc(Cl)c1)NC(=O)c1ccc(Nc2nc(NC3(c4ccc(Cl)cc4)CC3)nc(OCC(F)(F)F)n2)cc1 [Compound 3685] | 8.00 to 11.00
24 | COC(=O)[C@H](CCNC(=O)C(=O)Nc1cccc(-n2ccnc2)c1)NC(=O)c1ccc(Nc2nc(NC3(c4ccc(Cl)cc4)CC3)nc(OCC(F)(F)F)n2)cc1 [Compound 3610] | 8.00 to 11.00
25 | Cc1ccc(NC(=O)C(=O)NCC(C)(C)CNC(=O)c2ccc(Nc3nc(NC4(c5ccc(Cl)cc5)CC4)nc(OCc4cccc(Cl)c4)n3)cc2)cc1 [Compound 3844] | 8.00 to 11.00
26 | Cn1nnnc1-c1cccc(NC(=O)C(=O)NCC[C@H](NC(=O)c2ccc(Nc3nc(NC4(c5ccc(Cl)cc5)CC4)nc(OCC(F)(F)F)n3)cc2)C(=O)O)c1 [Compound 3655] | 8.00 to 11.00
27 | Cc1ccc2sc(NC(=O)C(=O)NCC(C)(C)CNC(=O)c3ccc(Nc4nc(NC5(c6ccc(Cl)cc6)CC5)nc(OCC(F)(F)F)n4)cc3)nc2c1 [Compound 3818] | 8.00 to 11.00
28 | COC(=O)[C@H](CNC(=O)C(=O)Nc1cccc(S(=O)(=O)C(F)(F)F)c1)NC(=O)c1ccc(Nc2nc(NC3(c4ccc(Cl)cc4)CC3)nc(OCC(F)(F)F)n2)cc1 [Compound 3710] | 8.00 to 11.00
29 | O=C(NC[C@H](NC(=O)c1ccc(Nc2nc(NC3(c4ccc(Cl)cc4)CC3)nc(OCC(F)(F)F)n2)cc1)C(=O)O)C(=O)Nc1cccc(S(=O)(=O)C(F)(F)F)c1 [Compound 3766] | 8.00 to 11.00
30 | O=C(NC[C@H](NC(=O)c1ccc(Nc2nc(NC3(c4ccc(Cl)cc4)CC3)nc(OCC(F)(F)F)n2)cc1)C(=O)O)C(=O)Nc1cccc(-c2ccccc2)c1 [Compound 3751] | 8.00 to 11.00
31 | COC(=O)[C@H](CCNC(=O)C(=O)Nc1cccc(Oc2ccccn2)c1)NC(=O)c1ccc(Nc2nc(NC3(c4ccc(Cl)cc4)CC3)nc(OCC(F)(F)F)n2)cc1 [Compound 3602] | 8.00 to 11.00
32 | O=C(NCC[C@H](NC(=O)c1ccc(Nc2nc(NC3(c4ccc(Cl)cc4)CC3)nc(OCC(F)(F)F)n2)cc1)C(=O)O)C(=O)Nc1cccc(-c2c[nH]cn2)c1 [Compound 3656] | 8.00 to 11.00
33 | COC(=O)[C@H](CNC(=O)C(=O)Nc1cccc(-c2csc(C)n2)c1)NC(=O)c1ccc(Nc2nc(NC3(c4ccc(Cl)cc4)CC3)nc(OCC(F)(F)F)n2)cc1 [Compound 3718] | 8.00 to 11.00
34 | COC(=O)[C@H](CNC(=O)C(=O)Nc1cccc(-n2cnnc2)c1)NC(=O)c1ccc(Nc2nc(NC3(c4ccc(Cl)cc4)CC3)nc(OCC(F)(F)F)n2)cc1 [Compound 3729] | 8.00 to 11.00
35 | CC(C)(CNC(=O)C(=O)Nc1ccc(C#N)cc1)CNC(=O)c1ccc(Nc2nc(NC3(c4ccc(Cl)cc4)CC3)nc(OCc3ccc(OC(F)(F)F)cc3)n2)cc1 [Compound 3852] | 8.00 to 11.00

Same assay, conditions: Hepatitis C virus, Huh-7, read-out: Activity (EC50 class), HCV pseudoparticles (genotype 1a, H77C) in Huh7 cells; EC50 expressed as class A/B

Row | Compound | pEC50
36 | CC(C)(CNC(=O)C(=O)Nc1ncc(F)s1)CNC(=O)c1ccc(Nc2nc(NC3(c4ccc(Cl)cc4)CC3)nc(OCC(F)(F)F)n2)cc1 [Compound 3239] | 8.00 to 11.00
37 | Cc1nccn1-c1ccc(NC(=O)C(=O)NC[C@H](NC(=O)c2ccc(Nc3nc(NC4(c5ccc(Cl)cc5)CC4)nc(OCC(F)(F)F)n3)cc2)C(=O)O)cc1 [Compound 3286] | 8.00 to 11.00
38 | CN(CCCNC(=O)c1ccc(Nc2nc(NC3(c4ccc(Cl)cc4)CC3)nc(OCC(F)(F)F)n2)cc1)C(=O)C(=O)NCc1ccc(F)cc1 [Compound 3444] | 8.00 to 11.00
39 | Cc1ccc(NC(=O)C(=O)NCC(O)CNC(=O)c2ccc(Nc3nc(NC4(c5ccc(Cl)cc5)CC4)nc(OCC(F)(F)F)n3)cc2)cc1Cl (stereo not drawn) [Compound 3466] | 8.00 to 11.00
40 | CN(CCCN(C)C(=O)c1ccc(Nc2nc(NC3(c4ccc(Cl)cc4)CC3)nc(OCC(F)(F)F)n2)cc1)C(=O)C(=O)N1CCc2ccccc2C1 [Compound 3433] | 6.00 to 8.00
41 | CC(CNC(=O)C(=O)Nc1cc(F)cc(F)c1)CNC(=O)c1ccc(Nc2nc(NC3(c4ccc(Cl)cc4)CC3)nc(OCC(F)(F)F)n2)cc1 (stereo not drawn) [Compound 3469] | 8.00 to 11.00
42 | Cc1ccccc1-c1ccc(NC(=O)C(=O)NC[C@H](NC(=O)c2ccc(Nc3nc(NC4(c5ccc(Cl)cc5)CC4)nc(OCC(F)(F)F)n3)cc2)C(=O)O)cc1 [Compound 3272] | 8.00 to 11.00
43 | Cc1ccc(NC(=O)C(=O)NCC(C)(C)CNC(=O)c2ccc(Nc3nc(NC4(c5ccc(Cl)cc5)CC4)nc(OCC(F)(F)F)n3)cc2)cc1F [Compound 3044] | 8.00 to 11.00
44 | NC(=O)C(=O)N[C@H](CCNC(=O)c1ccc(Nc2nc(NC3(c4ccc(Cl)cc4)CC3)nc(OCC(F)(F)F)n2)cc1)C(=O)O [Compound 3491] | 6.00 to 8.00
45 | CC(C)(CNC(=O)C(=O)NCc1cccc(F)c1)CNC(=O)c1ccc(Nc2nc(NC3(c4ccc(Cl)cc4)CC3)nc(OCC(F)(F)F)n2)cc1 [Compound 3004] | 8.00 to 11.00
46 | Cc1cc(NC(=O)C(=O)NCC(O)CNC(=O)c2ccc(Nc3nc(NC4(c5ccc(Cl)cc5)CC4)nc(OCC(F)(F)F)n3)cc2)no1 (stereo not drawn) [Compound 3364] | 8.00 to 11.00
47 | COc1cccc(-c2ccccc2NC(=O)C(=O)NCC(C)(C)CNC(=O)c2ccc(Nc3nc(NC4(c5ccc(Cl)cc5)CC4)nc(OCC(F)(F)F)n3)cc2)c1 [Compound 3049] | 8.00 to 11.00
48 | Cc1ccc(NC(=O)C(=O)NC(C)(C)CNC(=O)c2ccc(Nc3nc(NC4(c5ccc(Cl)cc5)CC4)nc(OCC(F)(F)F)n3)cc2)cc1 [Compound 3417] | 8.00 to 11.00
49 | O=C(NCC(O)CNC(=O)c1ccc(Nc2nc(NC3(c4ccc(Cl)cc4)CC3)nc(OCC(F)(F)F)n2)cc1)C(=O)NC1CCCCC1 (stereo not drawn) [Compound 3463] | 8.00 to 11.00
50 | O=C(NCCCCNC(=O)c1ccc(Nc2nc(NC3(c4ccc(Cl)cc4)CC3)nc(OCC(F)(F)F)n2)cc1)C(=O)Nc1ccccc1 [Compound 3403] | 8.00 to 11.00
51 | CCC(CC)CCNC(=O)c1ccc(NC(=O)C(=O)NC[C@H](NC(=O)c2ccc(Nc3nc(NC4(c5ccc(Cl)cc5)CC4)nc(OCC(F)(F)F)n3)cc2)C(=O)OC)cc1 [Compound 3089] | 8.00 to 11.00
